In patent US12559784B2 (priority 2023, dated 2026):
Values joined by “and” are separate entries in the source; they are usually repeats but may differ in a detail not shown here. Identical values can stand only once. Like-named read-outs stand apart in the source and are kept apart here.

Legend:
alkaline phosphatase [1] = type: biochemical; conditions: PBS; 18 hours room temperature, PNPP 1 hour
From the text: Our next study compared different dilutions of the original alkaline phosphatase source (1:10 [Activity: 1,000 units] and 1:100 [100 units]) and two sources of alkaline phosphatase, both purchased from Sigma Aldrich (St. Louis, MO). […] The five conditions for this study included original alkaline phosphatase (1:1), original alkaline phosphatase (1:10), original alkaline phosphatase (1:100), new alkaline phosphatase (1:1), and the blanks (phosphate buffered saline (PBS)). […] The two controls contained ink to determine if there would be any background effect.
Preparation • 1. Alkaline phosphatase reaction reagent • a. Original AP • i. Add 1 mL PBS into AP vial, pipette re-pipette 10 times, then invert with cap on, to mix well. Take this 1 mL and add to 50 mL conical tube filled with 40 mL PBS. Invert to mix 10 times, vortex mix, let sit 2 minutes, invert to mix again 10 times • ii. Prepare 2 more 50 mL conical tubes • 1. 1:10 • a. […] 1:100 • a. Take 4 mL of solution made above, add to 36 mL PBS. […] New AP • i. Add 400 mg into a 50 mL conical tube filled with 40 mL PBS. Invert to mix 10 times, vortex mix, let sit 2 minutes, invert to mix 10 more times. Check to make sure all suspended. If not, vortex mix and invert until fully suspended. • 2. Prepare 24-well plates • 3. […] Aliquot with 200 μL PNPP Conditions • 1. Old AP • 2. Old AP (1:10) • 3. Old AP (1:100) • 4. New AP • 5. Blank (PBS only) Procedure • 1. 24-well plates • a. Add 1 mL (using P1000, blue tips) of the prepared PBS-AP to the plate (for each condition) • b. Add 100 μL of the test material to the well, mix with the same pipette tip, dispose and repeat for the rest of the test materials • c. Wrap the plate in saran wrap and place into the container • d. […] To the prepared 96-well plate with 200 μL PNPP or PBS, add 20 μL from the 24-well plate • 3. Incubate for 1 hour • 4.

alkaline phosphatase [2] = type: biochemical
Protocol: New stocks were made the of the 1:100 alkaline phosphatase reaction reagents.
The conditions included: 1:100 dilution of alkaline phosphatase reaction reagent with two solvents (buffered saline and ethanol), dosing in 0.5 mL microcentrifuge tubes with 20 μL of chemical added to 180 μL of reaction reagent, and incubating with p-Nitrophenyl phosphate disodium salt (PNPP) substrate for 1-hour.

alkaline phosphatase [3] = conditions: 30 μL chemical in 300 μL reagent 1:100, 4 hours room temperature, 3 mL PNPP 1 hour
Protocol: We changed the test chemical dosage to 30 μL and the alkaline phosphatase reaction reagent to 300 μL, but kept the incubation to 4 hours at room temperature.
PBS: Take 4 mL of AP (1:10) stock solution, add to 36 mL PBS. Vortex mix and then invert to mix 10 times • ii. […] Vortex mix and then invert to mix 10 times • b. PBS (lx) • c. […] Prepare 4 mL glass vials for dosing • a. Four sets • i. R1+ (PBS-AP) • ii. R1− (PBS) • iii. […] Prepare 96-well plates for PNPP reading (3 wells for each test chemical) Procedure • 1. Aliquot 300 μL of each reaction reagent to 4 mL glass vials. • 2. Add 30 μL of the test sample to each 4 mL glass vial. • 3. Incubate at room temperature for 4 hours. • 4. Aliquot 3 mL of PNPP to each 4 mL glass vial, let sit for 1 hr. • a. Aliquot 750 μL into the 4 mL glass vial to stop the reaction. • 5.

skin = conditions: rabbit, in vivo; cited from earlier work
[4] = cited from earlier work
alkaline phosphatase [5] = assay: Alkaline phosphatase experiment, seventh week: 1:100 vs 1:1000 dilution, room temperature vs 37° C.; conditions: 4-hour exposure, 1-hour PNPP
Protocol: Preparation • 1. Alkaline phosphatase reaction reagent • a. 1:100 • i. PBS: Take 400 μL of AP (1:10) stock solution, add to 3.6 mL PBS. Vortex mix and then invert to mix 10 times • ii. […] Vortex mix and then invert to mix 10 times • b. 1:1000 • i. PBS: Take 400 μL of AP (1:100) stock solution, add to 3.6 mL PBS. Vortex mix and then invert to mix 10 times • ii. […] Vortex mix and then invert to mix 10 times • 2. Prepare 0.5 mL microcentrifuge tubes for dosing • a. One set for room temperature, one set for 37° C. • 3. Prepare 96-well plates for PNPP reading (3 wells for each test chemical) • a. Aliquot with 200 μL PNPP Conditions • 1. 1:100 in PBS at RT • 2. […] 1:100 in PBS at 37° C. • 4. […] 1:1000 in PBS at RT • 6. […] 1:1000 in PBS at 37° C. • 8. […] Procedure • 1. In each microcentrifuge tube for each condition, add 180 μL of the corresponding AP reaction reagent • 2. Add 20 μL of the test chemical to each microcentrifuge tube • 3. Incubate for 4 hours (one set at room temperature; one set at 37° C.) • 4. To prepared 96-well plates with 200 μL PNPP aliquoted, add 20 μL of each microcentrifuge tube to the corresponding well • 5.

porcine skin = conditions: R 1 and 2
Protocol: Our initial studies involved using fresh and frozen porcine skin “buttons”. These buttons were punched out of porcine skin (Spear Products, Cooopersburg, PA) using a […] biopsy punch tool. Three different kinds of skin buttons were prepared from fresh porcine skin, frozen porcine skin, and frozen porcine skin with the fatty layer removed. […] The next day, the tubes were taken out and vortexed and 500 μL of the solution was aliquoted into cuvettes to read at three different optical density wavelengths (OD190, OD290, OD300) to evaluate the best response.
Skin Preparation • 1. Thaw 2 pieces of frozen porcine skin • 2. Punch out buttons: 24 buttons in each tube filled with 40 mL PB S-Azide 96-well plate Preparation • 1. Plate layout for dosing:
Procedure • 1. Dose each tissue with 140 μL of test chemical • 2. […] Take out of incubator and vortex pulse 3× • 2. Aliquot 500 μL to cuvette and read results at OD190, OD290, and OD300
There were three readings done at an optical density of 190, 290, and 300 nm to evaluate the best response. […] To address the variable exposure conditions, our next studies involved placing a larger porcine skin section into a holder that exposes only the epidermis side with no potential for test chemical exposure from the backside or through the sides.

phosphatase = type: biochemical, porcine
Protocol: Our next studies involved applying the test substance (500 μL) directly to the epidermis side of previously frozen porcine skin (Spear Products, Coopersburg, PA) that is placed in a holder that only exposes the epidermis side for 30 minutes, adding phosphate buffered saline (PBS) with added sodium azide (metabolic inhibitor that ensure no viable tissue), then aliquoting into cuvettes to read at an optical density of 300 nm. […] So, at the end of the initial studies described above, almost out of frustration, we tried to probe for released phosphatase activity using p-Nitrophenyl phosphate disodium salt (PNPP; Sigma Aldrich, St. Louis, MO) substrate solution to detect any presence of phosphatase.
Preparation • 1. Thaw 2 pieces of frozen porcine skin • a. Punch out as many skin discs and mount in holders • 2. Label cuvettes (3 for each chemical) Procedure • 1. Add 500 μL of test chemical to holder; incubate at room temperate for 30 minutes • 2. After 30 minutes, add 2 mL of PBS-Azide to both the holder containing the test chemical; forcefully pipette and re-pipette 10 times • 3. From the holder, aliquot 400 μL into 3 cuvettes; forcefully pipette and re-pipette 3 times before dispensing into cuvettes Reading Results • 1. Measure at OD300 for all cuvettes
Skin corrosion by GHS Category 1 dermal corrosive chemicals results in the disintegration of the epidermis into the dermis.

alkaline phosphatase [6] = assay: Alkaline phosphatase experiment, ninth week: microcentrifuge tubes vs glass vials; type: biochemical; conditions: ethanol alkaline phosphatase 1:100, 4 hours room temperature, 1-hour PNPP
Protocol: Feb. […] The test chemicals included water, acetic acid, heptanal, dimethylisopropylamine, n-Heptylamine, and N,N-Dimethylbenzylamine. We believe that when tilting the glass vial to mix by pipette/re-pipette, the alkaline phosphatase is sticking to the sides and therefore when the p-Nitrophenyl phosphate disodium salt (PNPP) is added, it immediately detects alkaline phosphatase presence and turns intensely yellow. In addition, by sticking to the side of the vial, since the volume of the test chemical added is low, the chance the test chemical interacting with the alkaline phosphatase might be less, therefore resulting in an intensely yellow enzyme reaction product. This study focused on the two stocks (one from previous experiment and a freshly made one) 1:100 concentration ethanol alkaline phosphatase reaction reagent. […] For the 4 mL vials, 30 μL of the test chemical is added to 300 μL of the alkaline phosphatase reaction reagent and incubated for 4 hours at room temperature.

[7] = frozen porcine skin with fat layer removed

Structure (SMILES): CN(C)Cc1ccccc1 [N,N-Dimethylbenzylamine]
- OD405 readings, original alkaline phosphatase 1:100 (FIG. 6D) (alkaline phosphatase [1]): 3.431 and 3.502 and 3.61
- A2 - Results AVG (alkaline phosphatase [2]): 0.570
- A2 - Results R1 (alkaline phosphatase [2]): 0.588
- A2 - Results R3 (alkaline phosphatase [2]): 0.539
- OD405 readings, buffered saline alkaline phosphatase reaction reagent, glass vials (FIG. 11B) (alkaline phosphatase [3]): 3.360 and 3.238 and 3.273
- OD405 readings, ethanol alkaline phosphatase reaction reagent, glass vials (FIG. 11D) (alkaline phosphatase [3]): 3.429 and 3.249 and 3.164
- in vivo GHS (skin): Cat. 1C
- solubility with water [4]: mostly insoluble with water
- OD405 reading, 1:1000 ethanol solvent condition (FIG. 9B) (alkaline phosphatase [5]): 0.587

Structure (SMILES): CCCCCCC=O [Heptanal]
- OD190 (porcine skin; fresh porcine skin, 140 μL test chemical, >3A = outside readable range): 0.486 and 0.365
- OD290 (porcine skin; fresh porcine skin): 0.170 and 0.165
- OD300 (porcine skin; fresh porcine skin): 0.123
- OD190 (porcine skin; [7]): 0.144 and 0.149
- OD290 (porcine skin; [7]): 0.111 and 0.140
- OD300 (porcine skin; [7]): 0.040 and 0.050
- OD190 (porcine skin; frozen porcine skin): 0.362 and 0.371
- OD290 (porcine skin; frozen porcine skin): 0.245 and 0.241
- OD300 (porcine skin; frozen porcine skin): 0.154 and 0.137
- percent of phosphatase measured (optical density compared to the naïve condition), average (phosphatase; average of two readings): 97.2%
- percent of phosphatase measured (optical density compared to the naïve condition) (phosphatase; single readings): 100.0% and 94.4%
- OD405 readings, glass vials (FIG. 12B) (alkaline phosphatase [6]): 0.804 and 0.852 and 0.901
- OD405 readings, microcentrifuge tubes (FIG. 12B) (alkaline phosphatase [6]): 2.360 and 2.539 and 2.690
- A2 - Results AVG (alkaline phosphatase [2]): 2.408
- A2 - Results R1 (alkaline phosphatase [2]): 2.730
- A2 - Results R3 (alkaline phosphatase [2]): 2.098
- Corrosive (skin): No
- in vivo GHS (skin): Cat. 2
